Read-outs that look alike come from different tables or passages of the source. Non-standard residues stand in square brackets, D forms with d. Residues, ends and D or L forms follow the SMILES beside them. *: point of attachment. Ursodeoxycholyl = C[C@H](CCC(=O)*)[C@H]1CC[C@H]2[C@@H]3[C@@H](O)C[C@@H]4C[C@H](O)CC[C@]4(C)[C@H]3CC[C@]12C; TTDA(Palmitoyl) = CCCCCCCCCCCCCCCC(=O)NCCCOCCOCCOCCCN*; PEG12 = NCCOCCOCCOCCOCCOCCOCCOCCOCCOCCOCCOCCOCCC(=O)O; dDip = N[C@@H](C(=O)O)C(c1ccccc1)c1ccccc1; Dip = N[C@H](C(=O)O)C(c1ccccc1)c1ccccc1; Palmitoyl = CCCCCCCCCCCCCCCC(=O)*; β3hF = N[C@H](CC(=O)O)Cc1ccccc1; NMeD = CN[C@@H](CC(=O)O)C(=O)O; β3hP = O=C(O)C[C@@H]1CCCN1; AEEEA = NCCOCCOCCOCC(=O)O; Dap = NC[C@H](N)C(=O)O
Experiments:
[1] = molecular target: T1, ferroportin tagged at the C-terminus with green fluorescent protein (Fpn-GFP) (Mus musculus, UniProt Q9JHI9); test: Flow cytometry of ferroportin-GFP degradation in ECR293/Fpn-GFP cells; format: cell-based
T1 construct: expressed in transfected cells; host or cells: ECR293/Fpn-GFP (stably transfected, ponasterone-inducible)
T1 sequence (Q9JHI9 1-570): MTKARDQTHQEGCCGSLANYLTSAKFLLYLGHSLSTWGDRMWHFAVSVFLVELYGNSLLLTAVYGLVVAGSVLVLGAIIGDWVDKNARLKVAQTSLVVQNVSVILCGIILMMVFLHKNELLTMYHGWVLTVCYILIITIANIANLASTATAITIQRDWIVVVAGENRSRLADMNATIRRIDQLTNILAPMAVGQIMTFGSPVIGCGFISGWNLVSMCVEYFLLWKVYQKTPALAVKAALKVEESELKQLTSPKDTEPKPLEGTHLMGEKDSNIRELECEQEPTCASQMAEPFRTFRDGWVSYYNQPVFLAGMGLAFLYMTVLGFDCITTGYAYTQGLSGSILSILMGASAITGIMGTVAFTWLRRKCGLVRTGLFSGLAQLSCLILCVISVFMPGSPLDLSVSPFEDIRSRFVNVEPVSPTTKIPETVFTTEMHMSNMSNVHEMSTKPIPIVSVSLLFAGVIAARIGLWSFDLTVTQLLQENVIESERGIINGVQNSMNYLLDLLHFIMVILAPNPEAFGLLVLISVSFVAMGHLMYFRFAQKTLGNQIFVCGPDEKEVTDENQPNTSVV
Method: In vitro activity may be measured by the dose-dependent loss of fluorescence of cells engineered to display ferroportin fused to green fluorescent protein as in Nemeth et al. (2006) Blood 107:328-33. Aliquots of cells are incubated for 24 hours with graded concentrations of a reference preparation of Hep25 or a mini-hepcidin. As provided herein, the EC50 values are provided as the concentration of a given compound (e.g. peptide) that elicits 50% of the maximal loss of fluorescence generated by the reference Hep25 preparation.
Mutational studies indicate that C326, the cysteine residue at position 326 of human ferroportin, is the critical residue involved in binding hepcidin. Thus, various N-terminal fragments of Hep25 containing a thiol, i.e. Hep 4-7, Hep3-7, Hep3-8, Hep3-9, Hep1-7, Hep1-8, Hep1-9, and Hep1-10 C7A, were chemically synthesized, refolded and their activities relative to Hep25 were assayed using flow-cytometric quantitation of the ferroportin-GFP degradation, iron efflux estimation based on measurements of cellular ferritin, and radioisotopic iron efflux studies.
The activity of peptides of the present invention was measured by flow cytometry as previously described. See Nemeth et al. (2006) Blood 107:328-333, which is herein incorporated by reference. ECR293/Fpn-GFP, a cell line stably transfected with a ponasterone-inducible ferroportin construct tagged at the C-terminus with green fluorescent protein was used. See Nemeth et al. (2004) Science 306:2090-2093, which is herein incorporated by reference. Briefly, the cells were plated on poly-D-lysine coated plates in the presence of 20 μM FAC, with or without 10 μM ponasterone. After 24 hours, ponasterone was washed off, and cells were treated with peptides for 24 hours. Cells were then trypsinized and resuspended at 1×10^6 cells/ml, and the intensity of green fluorescence was analyzed by flow cytometry. Flow cytometry was performed on FAC SCAN (fluorescence activated cell scanner) Analytic Flow Cytometer (Becton Dickinson, San Jose, Calif.) with […] version 3.3 software (Becton Dickinson). Cells not induced with ponasterone to express Fpn-GFP were used to establish a gate to exclude background fluorescence. Cells induced with ponasterone, but not treated with any peptides, were used as the positive control. Each peptide was tested over the range of concentrations (0, 0.01, 0.03, 0.1, 0.3, 1, 3 and 10 μM). Each peptide treatment was repeated independently 3 to 6 times. For each concentration of peptide, the results were expressed as a fraction of the maximal activity (FHep25) of Hep25 (in the dose range 0.01-10 μM), according to the formula 1−((Fx−FHep25)/(Funtreated−FHep25)), where F was the mean of the gated green fluorescence and x was the peptide.

C57/Bl6J mice = test: Serum iron assay in mice on low-iron diet, 4 hours after peptide; format: in vivo, mouse; set-up: key to active in vivo: *active in vivo; conditions: for active in vivo: asterisk at the EC50 value of Table 1
Method: The decrease in serum iron after peptide administration is the principal measure of hepcidin activity. Thus, as provided herein, the hepcidin activity of selected peptides of the present invention were assayed in vivo by measuring serum iron in test subjects. Briefly, C57/Bl6J mice were maintained on NIH 31 rodent diet (333 parts per million (ppm) iron; Harlan Teklad, Indianapolis, Ind.). Two weeks before the experiment, the mice were switched to a diet containing about 2-4 ppm iron (Harlan Teklad, Indianapolis, Ind.) in order to suppress endogenous hepcidin. Peptide stocks were diluted to desired concentrations in sterile phosphate buffered saline (PBS) or other diluents as described next. Mice were subjected to the following treatments: (a) Injected intraperitoneally either with 100 μl PBS (control) or with 50 μg peptide in 100 μl PBS; (b) Injected with 100 μl of peptide (or PBS) mixed with 500 μg empty liposomes COATSOME EL series (NOF, Tokyo, Japan) (prepared as per manufacturer's recommendation); (c) Injected with 100 μl peptides (or PBS) solubilized with SL220 solubilization agent (NOF, Tokyo, Japan); (d) Gavaged with 250 μl of peptide (or PBS) in 1× solvent (Cremophor EL (Sigma)/ethanol/PBS; (12.5:12.5:75)). Mice were sacrificed 4 hours later, blood was collected by cardiac puncture, and serum was separated using MICROTAINER tubes (Becton Dickinson, Franklin Lakes, N.J.). Serum iron was determined by using a colorimetric assay (Diagnostic Chemicals, Oxford, Conn.), which was modified for the microplate format so that 10 μl serum was used per measurement. The results were expressed as the percentage of decrease in serum iron when compared with the average value of serum iron levels in PBS-treated mice.

Hamp1-/- mice [2] = test: Treatment study: 2 weeks daily PR65 in iron-overloaded hepcidin knockout mice; format: in vivo, mouse; conditions: 50 nmoles daily s.c., 14 days
Method: To test the effect of PR65 on iron-loaded Hamp1^−/− mice (“treatment” studies), male mice were kept on the standard diet for their entire lifespan. Beginning at 12-14 weeks of age, 50 nmoles of PR65 or solvent was injected daily by the subcutaneous route for 2 weeks.
To assess the potential of mini-hepcidins as a standalone treatment for iron overload in subjects, 12 week old iron-overloaded hepcidin knockout mice were injected with 50 nmoles of PR65 daily for 14 days. […] In contrast to mice that were iron-depleted before PR65 administration, in mice with established iron overload serum iron levels were not decreased 24 hours after the last dose compared to solvent-treated mice (p=0.682) (FIG. 15B). […] The less than 24 hours duration of the hypoferremic effect of each 50 nmoles dose may have been due to the severe iron overload of the hepcidin knockout mice at this age. Accumulated hepatocyte iron could stimulate ferroportin synthesis and iron efflux from hepatocytes into plasma by relieving the inhibition of ferroportin translation by iron-regulatory proteins (IRPs) interacting with 5′ iron-regulatory element (5′ IRE) in the ferroportin mRNA, and possibly by other mechanisms.

Hamp1-/- mice [3] = test: Prevention study: 2 weeks daily PR65 in iron-depleted hepcidin knockout mice on iron-loading diet
Method: PR65 was administered subcutaneously in 100 μl of SL220 solubilizer. Short-term studies were carried out for up to 48 hours to establish the effectiveness of a single injection. Long-term studies (“prevention” and “treatment”) were carried out for 2 weeks using daily injections and iron and hematological parameters measured 24 hours after the last injection.
To test the ability of PR65 to prevent, inhibit, or reduce iron loading (“prevention” studies), male Hamp1^−/− mice were iron-depleted by placing them on a low-iron diet (4 ppm iron) for 2 months starting at the age of 5-6 weeks. […] A group of mice was analyzed immediately after iron depletion (baseline group), and the remaining animals were switched to an iron-loading diet (standard chow, about 300 ppm Fe) and received daily subcutaneous injection of solvent or PR65 (20, 50 or 100 nmoles) for 2 weeks. All mouse diets were obtained from Harlan-Teklad (Madison, Wis.).
Serum iron and non-heme iron concentrations were determined as previously described (Ramos E, et al. (2011) Hepatology 53(4):1333-1341), using acid treatment followed by a colorimetric assay for iron quantitation (Genzyme, Cambridge, Mass.). […] Complete blood counts were obtained with a HemaVet blood analyzer (Drew Scientific, Oxford, Conn.).
After iron depletion, a group of mice was analyzed to establish the baseline iron and hematological parameters and the rest of the mice were placed on an iron-loading diet (300 ppm Fe) for 2 weeks while simultaneously receiving daily subcutaneous injections of solven only (control) or PR65 (20, 50 or 100 nmoles) in solvent. […] Hemoglobin concentrations were monitored to detect potential iron-restrictive effects of hepcidin excess on erythropoiesis.

mouse = test: Activity at 20 nmoles/mouse: serum iron 4 hours after injection versus solvent (Tables 3 and 4); format: in vivo; set-up: key: Y: “Active” means that at 4 hours after injection serum iron in peptide-injected mice decreased statistically significantly (p < 0.05) compared to solvent-injected mice; Y*: Exhibits detectable and reproducible activity at about 50% lower than the most active compounds in Table 3 and 4; conditions: Table 3, intraperitoneal

CCCCCCCCCCCCCCCC(=O)NCCOCCOCCOCCOCCOCCOCCOCCOCCOCCOCCOCCOCCC(=O)N[C@H](Cc1ccccc1)C(=O)N[C@@H](C(=O)N[C@H](CS)C(=O)N[C@@H](C(=O)N1CCC[C@@H]1C(=O)N[C@H](Cc1ccccc1)C(=O)N[C@H](Cc1c[nH]cn1)C(=O)N[C@@H](C(=O)N[C@H](CC(=O)O)C(N)=O)[C@H](C)O)[C@H](C)CC)[C@H](C)CC [PR27]
EC50 ([1]; Table 1, 24 h peptide treatment, 50% of maximal loss of fluorescence by Hep25, read-out: EC50): 20 nM
serum iron (C57/Bl6J mice; 20 nmoles i.p. in PBS): comparable to that caused by i.p. administration of 20 nmoles Hep25
serum iron (C57/Bl6J mice; 200 nmoles i.p. in PBS): even greater decrease
serum iron (C57/Bl6J mice; 200 nmoles oral by gavage in Cremophor EL solution): caused a decrease in serum iron
active in vivo (C57/Bl6J mice): *

CCCCCCCCCCCCCCCC(=O)NCCCOCCOCCOCCCNC(=O)C[C@H](Cc1ccccc1)NC(=O)[C@H](CCCNC(=N)N)NC(=O)[C@H](CS)NC(=O)[C@H](CCCNC(=N)N)NC(=O)C[C@@H]1CCCN1C(=O)[C@@H](NC(=O)[C@H](Cc1c[nH]cn1)NC(=O)[C@@H](NC(=O)CNCC(=O)O)[C@@H](C)O)C(c1ccccc1)c1ccccc1 [PR65]
decrease in hemoglobin (Hamp1-/- mice [2]): 2 g/dL
hemoglobin levels (Hamp1-/- mice [3]; 20 nmoles per day s.c., 2 weeks): did not change significantly
reduction of hemoglobin concentration (Hamp1-/- mice [3]; 50 nmoles per day s.c., 2 weeks): 3 g/dL
anemia (Hamp1-/- mice [3]; 100 nmoles daily, 2 weeks): moderately anemic
reduction of hemoglobin concentration (Hamp1-/- mice [3]; 100 nmoles per day s.c., 2 weeks): 5 g/dL
maximal tolerated dose (Hamp1-/- mice [3]; daily s.c. dosing): 50 nmol

CCCCCCCCCCCCCCCC(=O)NCCCOCCOCCOCCCNC(=O)COCCOCCOCCNC(=O)[C@H](Cc1ccccc1)NC(=O)C1(NC(=O)[C@H](CS)NC(=O)C2(NC(=O)[C@@H]3CCCN3C(=O)[C@@H](NC(=O)[C@H](Cc3c[nH]cn3)NC(=O)[C@@H](NC(=O)CNCC(=O)O)[C@@H](C)O)C(c3ccccc3)c3ccccc3)CCCCC2)CCCCC1 [PR60]
Active @ 20 nmoles/mouse IP (mouse): Y*

CCCCCCCCCCCCCCCC(=O)NC[C@H](NC(=O)CCCCCCCCCCCCCCC)C(=O)NCCOCCOCCOCCOCCOCCOCCOCCOCCOCCOCCOCCOCCC(=O)N[C@H](Cc1ccccc1)C(=O)N[C@@H](C(=O)N[C@H](CS)C(=O)N[C@@H](C(=O)N1CCC[C@@H]1C(=O)N[C@H](Cc1ccccc1)C(=O)N[C@H](Cc1c[nH]cn1)C(=O)N[C@@H](C(=O)N[C@H](CC(=O)O)C(N)=O)[C@H](C)O)[C@H](C)CC)[C@H](C)CC [PR28] (Palmitoyl-[Dap](Palmitoyl)[PEG12][dF][dI][dC][dI][dP][dF][dH][dT][dD]-NH2)
serum iron (C57/Bl6J mice; 20 nmoles i.p. in liposomal solution): lesser ability to decrease serum iron than PR27

CC[C@@H](C)[C@@H](NC(=O)[C@@H](Cc1ccccc1)NC(=O)CCOCCOCCOCCOCCOCCOCCOCCOCCOCCOCCOCCOCCNC(=O)[C@@H](CC(=O)O)NC(=O)CC[C@@H](C)[C@H]1CC[C@H]2[C@@H]3[C@@H](O)C[C@@H]4C[C@H](O)CC[C@]4(C)[C@H]3CC[C@]12C)C(=O)N[C@H](CS)C(=O)N[C@@H](C(=O)N1CCC[C@@H]1C(=O)N[C@H](Cc1ccccc1)C(=O)N[C@H](Cc1c[nH]cn1)C(=O)N[C@@H](C(=O)N[C@H](CC(=O)O)C(N)=O)[C@H](C)O)[C@H](C)CC [PR24] (Ursodeoxycholyl-[dD][PEG12][dF][dI][dC][dI][dP][dF][dH][dT][dD]-NH2)
active in vivo (C57/Bl6J mice): *

CCCCCCCCCCCCCCCC(=O)NCCCOCCOCCOCCCNC(=O)COCCOCCOCCNC(=O)C[C@H](Cc1ccccc1)NC(=O)[C@H](CCCNC(=N)N)NC(=O)[C@H](CS)NC(=O)[C@H](CCCNC(=N)N)NC(=O)C[C@@H]1CCCN1C(=O)[C@@H](NC(=O)[C@H](Cc1c[nH]cn1)NC(=O)[C@@H](NC(=O)[C@H](CC(=O)O)NC)[C@@H](C)O)C(c1ccccc1)c1ccccc1 [PR57] (H-[NMeD]TH[Dip][β3hP]RCR[β3hF][AEEEA]-{TTDA(Palmitoyl)}; N-terminus and C-terminus assumed)
Active @ 20 nmoles/mouse IP (mouse): Y

CC[C@H](C)[C@H](NC(=O)[C@H](CS)NC(=O)[C@@H](NC(=O)[C@@H]1CCCN1C(=O)[C@H](Cc1ccccc1)NC(=O)[C@H](Cc1c[nH]cn1)NC(=O)[C@@H](NC(=O)[C@@H](N)CC(=O)O)[C@@H](C)O)[C@@H](C)CC)C(=O)N[C@@H](Cc1ccccc1)C(N)=O [Hep9]
serum iron (C57/Bl6J mice; 50 μg per mouse i.p. in PBS, after 4 hours): did not result in a serum iron decrease

CCCCCCCCCCCCCCCC(=O)NCCOCCOCCOCCOCCOCCOCCOCCOCCOCCOCCOCCOCCC(=O)N[C@H](Cc1ccccc1)C(=O)N[C@@H](C(=O)N[C@H](CS)C(=O)N[C@@H](C(=O)N1CCC[C@@H]1C(=O)N[C@@H](C(=O)N[C@H](Cc1c[nH]cn1)C(N)=O)C(c1ccccc1)c1ccccc1)[C@H](C)CC)[C@H](C)CC [PR49, R4-F-I-C-I-P-Dpa-H] ({Palmitoyl-PEG12}-[dF][dI][dC][dI][dP][dDip][dH]-NH2)
EC50 ([1]; read-out: EC50 (nM) in vitro, Table 3): < 10 nM

From patent US9896481B2, “Modified mini-hepcidin peptides and methods of using thereof” (priority 2011, dated 2018)
